From the supplement of paper PMC12317010
Structures can show the parent of a compound that is named as a salt.

Experiment: collision cross section in nitrogen (drift tube, single-field); higher = larger gas-phase ion size
[1] = ion type: [M+H], ion source: APCI, ion mode: Positive
[2] = ion type: [M+H], ion source: ESI, ion mode: Positive
[3] = ion type: [M+Na], ion source: ESI, ion mode: Positive
[4] = ion type: [M+], ion source: APCI, ion mode: Positive
[5] = ion type: [M-H], ion source: ESI, ion mode: Negative
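Further: chemical standards at 10 µM analysed by drift tube IMS-QTOF MS in about 3.95 torr nitrogen, mean of duplicate injections differing ≤1%, mass error below 10 ppm.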

SMILES	collision cross section in nitrogen [1]	collision cross section in nitrogen [2]	collision cross section in nitrogen [3]	collision cross section in nitrogen [4]	collision cross section in nitrogen [5]
CC(C)(C)c1cc(CCC(=O)NCCCCCCNC(=O)CCc2cc(C(C)(C)C)c(O)c(C(C)(C)C)c2)cc(C(C)(C)C)c1O [Antioxidant 1098]	263.2 Å²	263.3 Å²	259.8 Å²	271.7 Å²	252.1 Å²
COC(=O)c1ccccc1CS(=O)(=O)NC(=O)Nc1nc(OC)cc(OC)n1 [Bensulfuron-methyl]			197.8 Å²		
CCCc1ccc(O)cc1 [4-Propylphenol]					134.5 Å²
Oc1ccc2cc(SSc3ccc4cc(O)ccc4c3)ccc2c1 [6-Hydroxy-2-naphthyl disulfide]					185.8 Å²
CCCCCCCC(=O)OC [Methyl octanoate]					146.7 Å²
CC(O)CN(CC(C)O)CC(C)O (centres undefined) [Triisopropanolamine]	141.3 Å²	141.5 Å²	143.9 Å²		
CNc1cccc2c1C(=O)c1ccccc1C2=O [1-(Methylamino)anthraquinone]		151.6 Å²			
O=[N+]([O-])c1cc([As](=O)(O)O)ccc1O [4-Hydroxy-3-nitrophenylarsonic acid]		145 Å²			141.8 Å²
C(COCC1CO1)OCC1CO1 (centres undefined) [Ethylene glycol diglycidyl ether]			135.8 Å²		
O=S(=O)(O)c1ccc(N=Nc2c(O)ccc3cc(S(=O)(=O)O)ccc23)cc1 [FD&C Yellow 6]					203.1 Å²
CCCN(CC1CC1)c1c([N+](=O)[O-])cc(C(F)(F)F)cc1[N+](=O)[O-] [Profluralin]					172.2 Å²
CCc1cccc(C)c1N(C(=O)CCl)[C@@H](C)COC [S-Metolachlor]	159.5 Å²	160.1 Å²	172.5 Å²		
OC(Cn1cncn1)(Cn1cncn1)c1ccc(F)cc1F [Fluconazole]	167.5 Å²	167.2 Å²	172 Å²		
O=S(=O)(O)c1ccc(N=Nc2c(O)ccc3ccccc23)cc1 [C.I. Acid Orange 7]					182.7 Å²
CCCCCCCCCCCCOC(=O)c1cc(O)c(O)c(O)c1 [Lauryl gallate]					183.1 Å²
CC(C)(c1ccc(OCC2CO2)cc1)c1ccc(OCC2CO2)cc1 (centres undefined) [Bisphenol A diglycidyl ether]			176.7 Å²		
O=C(O)CCc1ccccc1 [Hydrocinnamic acid]					139 Å²
Nc1nc(N)nc(NC2CC2)n1 [Cyromazine]	135.6 Å²	135.9 Å²			
Oc1ccc(I)cc1 [4-Iodophenol]					124.5 Å²
COc1cc(/C=C/C(=O)CC(=O)/C=C/c2ccc(O)c(OC)c2)ccc1O [Curcumin]	202.8 Å²				187.7 Å²

SMILES	collision cross section in nitrogen [1]	collision cross section in nitrogen [2]	collision cross section in nitrogen [3]	collision cross section in nitrogen [4]	collision cross section in nitrogen [5]
COC(=O)N(OC)c1ccccc1COc1ccn(-c2ccc(Cl)cc2)n1 [Pyraclostrobin]	184.5 Å²	183.8 Å²	195.5 Å²		
Nc1cc(N)cc(C(=O)O)c1 [3,5-Diaminobenzoic acid]					136.6 Å²
COc1ccc(-c2ccccc2)cc1NNC(=O)OC(C)C [Bifenazate]			185.7 Å²		
CCOC(=O)c1ccccc1C(=O)O [Monoethyl phthalate]					142 Å²
COc1ccccc1Oc1c(NS(=O)(=O)c2ccc(C(C)(C)C)cc2)nc(-c2ncccn2)nc1OCCO [Bosentan hydrate]	229.9 Å²	229.4 Å²	234.4 Å²		232.9 Å²
Cc1cc(C2(c3ccc(O)c(C)c3)C(=O)Nc3ccccc32)ccc1O [1,3-Dihydro-3,3-bis(4-hydroxy-m-tolyl)-2H-indol-2-one]		185.4 Å²	196.6 Å²		190.8 Å²
CCCCN(CCC(=O)OCC)C(C)=O [Ethyl 3-(N-butylacetamido)propionate]	149.3 Å²		162 Å²		
COc1cc(C=O)cc2c1[C@H](COC(N)=O)[C@]1(OC(C)=O)ON2C[C@H]2[C@@H]1N2C(C)=O	191.3 Å²	192.1 Å²	190.5 Å²		
O=C(/C=C/C=C/c1ccc2c(c1)OCO2)N1CCCCC1 [Piperine]	176 Å²	175.7 Å²	177.8 Å²		
Cc1ccc(N)cc1S(=O)(=O)O [5-Amino-2-methylbenzenesulfonic acid]					137.7 Å²
CCC(C)(C)c1ccc(O)cc1 [4-(2-Methylbutan-2-yl)phenol]					143.8 Å²
Cc1c(C(=O)O)c(O)cc2c1C(=O)c1c(O)c([C@@H]3O[C@H](CO)[C@@H](O)[C@H](O)[C@H]3O)c(O)c(O)c1C2=O [Carminic acid]		209.1 Å²	217.8 Å²		208.9 Å²
C=C[C@](C)(O)CC[C@@H]1[C@@]2(C)CCCC(C)(C)[C@@H]2CC[C@@]1(C)O [Sclareol]			189.2 Å²		178.9 Å²
Cc1ccc2nc(-c3ccc(N)cc3)sc2c1 [Dehydrothio-4-toluidine]	153.9 Å²	153.9 Å²		153.5 Å²	155.8 Å²
OCc1ncccc1O [3-Hydroxy-2-(hydroxymethyl)pyridine hydrochloride]	121.7 Å²	122.1 Å²			119.9 Å²
CCn1cc(C(=O)O)c(=O)c2cc3c(cc21)OCO3 [Oxolinic acid]	152.6 Å²	152.3 Å²	165 Å²		
c1ccc(CCCc2ccccn2)cc1 [2-(3-Phenylpropyl)pyridine]	140.8 Å²	141.1 Å²			
Nc1ccc(-c2ccc(F)cc2)cc1 [4'-Fluoro-4-aminodiphenyl]		156.4 Å²		136.9 Å²	
CCOC(=O)NCCOc1ccc(Oc2ccccc2)cc1 [Fenoxycarb]			184.6 Å²		
N=C1NC(=N)c2cc3ccccc3cc21 [1,3-Diiminobenz(f)isoindoline]		140.1 Å²			

SMILES	collision cross section in nitrogen [1]	collision cross section in nitrogen [2]	collision cross section in nitrogen [3]	collision cross section in nitrogen [4]	collision cross section in nitrogen [5]
CCc1cc(C(N)=S)ccn1 [Ethionamide]	137.5 Å²				135.2 Å²
O=c1c(O)c(-c2ccc(O)cc2)oc2cc(O)cc(O)c12 [Kaempferol]	163.2 Å²	162.8 Å²			162.2 Å²
c1coc(CNc2[nH]cnc3ncnc2-3)c1 [Kinetin]	144.3 Å²	144.4 Å²	159.2 Å²		148.4 Å²
Cc1c(C(=O)c2cnn(C)c2O)ccc(S(C)(=O)=O)c1C1=NOCC1 [Topramezone]			181.1 Å²		182.9 Å²
C[N+](C)(C)CC(=O)[O-] [Betaine]		121.4 Å²	133.3 Å²		
CC(=O)Nc1ccc(N=Nc2c(S(=O)(=O)O)cc3cc(S(=O)(=O)O)cc(NC(C)=O)c3c2O)cc1 [C.I. Food Red 11]					231.8 Å²
COc1ccc([C@@H]2CC(=O)c3c(O)cc(O[C@@H]4O[C@H](CO[C@@H]5O[C@@H](C)[C@H](O)[C@@H](O)[C@H]5O)[C@@H](O)[C@H](O)[C@H]4O)cc3O2)cc1OC [Methyl hesperidin]			232.5 Å²		245.2 Å²
O=C(O)CCCOC(=O)c1ccccc1C(=O)O [Mono(3-carboxypropyl)phthalate]			156.3 Å²		
CCCCCCCC(=O)OCC(COC(=O)CCCCCCC)OC(=O)CCCCCCC [Tricaprylin]			231.4 Å²		
Cc1c(N(C)CS(=O)(=O)O)c(=O)n(-c2ccccc2)n1C [Dipyrone monohydrate]					173.9 Å²
CN(CCOc1ccc(CC2SC(=O)NC2=O)cc1)c1ccccn1 (centres undefined) [Rosiglitazone maleate]	172.4 Å²	172.5 Å²	182.7 Å²		176.3 Å²
Cc1ncc[nH]1 [2-Methylimidazole]					112.8 Å²
C=COCCOCCOCCOC=C [3,6,9,12-Tetraoxatetradeca-1,13-diene]			143.4 Å²		
O=S(=O)(O)c1cccc2c(S(=O)(=O)O)cccc12 [1,5-Naphthalenedisulfonic acid, disodium salt hydrate]					156.3 Å²
CC(=O)Nc1ccccc1O [2-Hydroxyacetanilide]					130.2 Å²
COc1cc(S(=O)(=O)O)c(C)cc1N=Nc1c(O)ccc2cc(S(=O)(=O)O)ccc12					214.8 Å²
C(=CNc1ccccc1)C=Nc1ccccc1 [N-(3-Anilino-2-propenylidene)aniline monohydrochloride]		159.3 Å²			158.6 Å²
CCn1cc(C(=O)O)c(=O)c2ccc(C)nc21 [Nalidixic acid]	147.5 Å²	147.8 Å²	161.1 Å²		
COCCOC(=O)c1ccccc1C(=O)OCCOC [Di(2-methoxyethyl) phthalate]			161.7 Å²		
CCN(CC)C(=O)C(C)Oc1cccc2ccccc12 (centres undefined) [Napropamide]	163.8 Å²	164.2 Å²	172 Å²		
